In PubChem BioAssay (NCI):
Where “and” joins values, the source holds several entries; their conditions need not be identical. Equal values may be shown once.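 Interpolation was linear, between the two tested concentrations surrounding the appropriate level; five concentrations were tested over 48 hours in 96-well plates. GI50 is the concentration that inhibits growth by half. Definition used: TGI = concentration required for complete inhibition of growth.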 Where a SMILES comes first, the peptide text is derived from it. The star is where a group is joined. Boc = CC(C)(C)OC(=O)*; nBu = CCCC*

Experiments:
Experiment in all cases: DTP human tumour cell line panel, 48 h
HCC-2998 colon = test system: HCC-2998 colon
A498 renal = test system: A498 renal
SF-268 CNS = test system: SF-268 CNS
MDA-MB-435 = test system: MDA-MB-435
SK-MEL-5 melanoma = test system: SK-MEL-5 melanoma
HT29 colon = test system: HT29 colon
SF-295 CNS = test system: SF-295 CNS
SW-620 colon = test system: SW-620 colon
OVCAR-3 ovarian = test system: OVCAR-3 ovarian
SF-539 CNS = test system: SF-539 CNS

Structure (SMILES)	TGI (HCC-2998 colon)	TGI (A498 renal)	TGI (SF-268 CNS)	TGI (MDA-MB-435)	TGI (SK-MEL-5 melanoma)	TGI (HT29 colon)	TGI (SF-295 CNS)	TGI (SW-620 colon)	TGI (OVCAR-3 ovarian)	TGI (SF-539 CNS)	GI50 (SW-620 colon)	GI50 (HCC-2998 colon)	GI50 (A498 renal)	GI50 (SK-MEL-5 melanoma)	GI50 (OVCAR-3 ovarian)	GI50 (MDA-MB-435)	GI50 (HT29 colon)	GI50 (SF-295 CNS)	GI50 (SF-539 CNS)
COc1cc(C2S/C(=C/c3ccccc3)C(=O)N2c2cccc(NC(C)=O)c2)cc(OC)c1OC (centres undefined)	> 100 µM	93.7 µM	> 100 µM	47.2 µM	> 100 µM	59.7 µM	> 100 µM	–	–	–	–	–	–	–	–	–	–	–	–
C/C(C=O)=C/[C@@]1(C)O[C@@H](C)[C@@](C)(O)[C@@H]1O	48.2 µM	> 100 µM	63.7 µM	> 100 µM	> 100 µM	> 100 µM	> 100 µM	> 100 µM	> 100 µM	> 100 µM	–	–	–	–	–	–	–	–	–
C#C[C@]1(O)CC[C@H]2[C@@H]3CCc4cc(O)ccc4[C@H]3CC[C@@]21C	73.8 µM	77.4 µM	> 100 µM	–	52.2 µM	54.4 µM	74.8 µM	> 100 µM	> 100 µM	40.4 µM	–	–	–	–	–	–	–	–	–
COC(=O)/C=C\C(C#N)(C#N)N=Cc1ccc(OC)cc1	41.1 µM	33 µM	11.5 µM	5.44 µM	32.6 µM	22.2 µM	53 µM	14.6 µM	6.64 µM	11.2 µM	–	–	–	–	–	–	–	–	–
Cc1c(-c2ccccc2)[nH]c2cn[nH]c(=O)c12	> 100 µM	> 100 µM	> 100 µM	> 100 µM	> 100 µM	> 100 µM	> 100 µM	> 100 µM	> 100 µM	> 100 µM	–	–	–	–	–	–	–	–	–
COc1cccc(C23CCN(C)C(CC(O)C2)C3)c1OC (centres undefined)	–	> 100 µM	> 100 µM	> 100 µM	> 100 µM	> 100 µM	> 100 µM	> 100 µM	> 100 µM	> 100 µM	–	–	–	–	–	–	–	–	–
O=C(O)c1cc2ccccc2c(N=Nc2ccc(S(=O)(=O)Nc3ncccn3)cc2)c1O	> 100 µM	–	> 100 µM	> 100 µM	> 100 µM	> 100 µM	> 100 µM	> 100 µM	> 100 µM	> 100 µM	–	–	–	–	–	–	–	–	–
CN(CCc1ccccn1)c1ccc2c(c1)C(=O)c1ccccc1-2	> 100 µM	> 100 µM	> 100 µM	> 100 µM	98.3 µM	> 100 µM	> 100 µM	> 100 µM	> 100 µM	–	–	–	–	–	–	–	–	–	–
CCc1n[nH]c(=O)n1/N=C(\C)c1ccccc1	–	> 100 µM	> 100 µM	> 100 µM	> 100 µM	> 100 µM	> 100 µM	> 100 µM	> 100 µM	> 100 µM	–	–	–	–	–	–	–	–	–
O=C(Cc1nc2ccccc2[nH]c1=O)c1c[nH]c2ccccc12	41.6 µM	51.9 µM	> 100 µM	> 100 µM	26.9 µM	27.3 µM	35 µM	> 100 µM	68 µM	35.2 µM	–	–	–	–	–	–	–	–	–
CCOc1nc2c(N3CCCC3)nc(N3CCNCC3)nc2nc1NCc1ccccc1	2.62 µM	–	3.03 µM	2.72 µM	2.71 µM	2.6 µM	3.37 µM	3.49 µM	2.32 µM	2.85 µM	–	–	–	–	–	–	–	–	–
CC1(C)OC[C@@H]([C@@]2(COC(c3ccccc3)(c3ccccc3)c3ccccc3)CC=CC(=O)O2)O1	41 µM	71.4 µM	> 100 µM	> 100 µM	–	> 100 µM	> 100 µM	> 100 µM	> 100 µM	> 100 µM	–	–	–	–	–	–	–	–	–
COc1ccc(C2C3CCc4ccccc4C3=NN2S(=O)(=O)c2cccc(C(=O)O)c2OC)cc1 (centres undefined)	–	–	> 100 µM	4.15 µM	> 100 µM	> 100 µM	35.1 µM	> 100 µM	68.6 µM	22 µM	–	–	–	–	–	–	–	–	–
Cc1ccc(-c2cc(-c3ccc(Cl)cc3)nc(/N=C3\C(=O)N(CN(C)C)c4ccccc43)n2)cc1	–	> 100 µM	> 100 µM	32.1 µM	> 100 µM	> 100 µM	> 100 µM	> 100 µM	> 100 µM	> 100 µM	–	–	–	–	–	–	–	–	–
Oc1ccccc1C=Nc1ccc(-c2nc3ccccc3s2)cc1	45.4 µM	52.4 µM	> 100 µM	> 100 µM	31.9 µM	> 100 µM	55.9 µM	> 100 µM	88 µM	> 100 µM	–	–	–	–	–	–	–	–	–
CCCCOc1ccc(CC(NC(=O)OC(C)(C)C)C(=O)NC(C)C(=O)NC(Cc2ccccc2)C(=O)NCC(N)=O)cc1 (centres undefined) (Boc-Y(nBu)AFG-NH2; configuration not given here)	> 100 µM	> 100 µM	> 100 µM	> 100 µM	> 100 µM	> 100 µM	> 100 µM	> 100 µM	> 100 µM	> 100 µM	–	–	–	–	–	–	–	–	–

Structure (SMILES)	TGI (HCC-2998 colon)	TGI (A498 renal)	TGI (SF-268 CNS)	TGI (MDA-MB-435)	TGI (SK-MEL-5 melanoma)	TGI (HT29 colon)	TGI (SF-295 CNS)	TGI (SW-620 colon)	TGI (OVCAR-3 ovarian)	TGI (SF-539 CNS)	GI50 (SW-620 colon)	GI50 (HCC-2998 colon)	GI50 (A498 renal)	GI50 (SK-MEL-5 melanoma)	GI50 (OVCAR-3 ovarian)	GI50 (MDA-MB-435)	GI50 (HT29 colon)	GI50 (SF-295 CNS)	GI50 (SF-539 CNS)
N#C/C(=C(/O)CCl)c1nc2ccccc2o1	–	4.4 µM	8.57 µM	10.8 µM	3.83 µM	22.5 µM	6.74 µM	> 100 µM	20.3 µM	8.74 µM	–	–	–	–	–	–	–	–	–
O=P(NCCCO)(OCc1ccccc1)N(CCCl)CCCl (centres undefined)	> 100 µM	> 100 µM	> 100 µM	–	> 100 µM	> 100 µM	> 100 µM	> 100 µM	> 100 µM	> 100 µM	–	–	–	–	–	–	–	–	–
O=[N+]([O-])c1ccc(N=Nc2c(O)[nH]c3ccccc23)c([N+](=O)[O-])c1	44.1 µM	79.4 µM	> 100 µM	> 100 µM	> 100 µM	81.7 µM	25.1 µM	> 100 µM	13.9 µM	10.2 µM	–	–	–	–	–	–	–	–	–
Nc1nc(SCC(=O)c2ccc(Br)cc2)c2[nH]cnc2n1	–	> 100 µM	> 100 µM	> 100 µM	60.3 µM	> 100 µM	> 100 µM	> 100 µM	> 100 µM	–	–	–	–	–	–	–	–	–	–
C=C1C(O)C2(O)OCC34C(CC5C(C)=CC(=O)C(O)C5(C)C23)OC(=O)C(OC(=O)C/C=C/CCCCCCCC)C14 (centres undefined)	0.0308 µM	0.0324 µM	0.035 µM	–	–	0.115 µM	–	0.0471 µM	–	0.0372 µM	–	–	–	–	–	–	–	–	–
CC(C)CC(N)C(=O)NC(C(=O)NC(CCCNC(=N)N)C(=O)NC(CS)C(=O)NC1CSCC(C(=O)NC(Cc2ccccc2)C(=O)NC(C(=O)NC(CCCNC(=N)N)C(=O)O)C(C)C)NC(=O)C2CCCN2C(=O)C(CCCCN)NC(=O)C2CCCN2C(=O)C2CCCN2C(=O)C(Cc2ccc(O)cc2)NC(=O)C(CO)NC(=O)C(CCCCN)NC(=O)C(C(C)O)NC(=O)C(Cc2c[nH]c3ccccc23)NC1=O)C(C)C (centres undefined)	–	> 25 µM	> 25 µM	> 25 µM	> 25 µM	> 25 µM	> 25 µM	> 25 µM	> 25 µM	> 25 µM	–	–	–	–	–	–	–	–	–
COc1ccc(N2C(=O)C(=O)C3(CCCCC3)C2=O)c2ccccc12	> 10 µM	> 10 µM	> 10 µM	> 10 µM	> 10 µM	> 10 µM	> 10 µM	> 10 µM	–	> 10 µM	–	–	–	–	–	–	–	–	–
O=C(Nc1ccccc1)Oc1ccc(C(=S)Nc2ccc(Br)cc2)cc1	40.8 µM	54.5 µM	> 100 µM	39.7 µM	31.1 µM	34.7 µM	84.3 µM	> 100 µM	52.8 µM	53 µM	–	–	–	–	–	–	–	–	–
CC(=O)c1ccc(Nc2c3ccccc3nc3occc23)cc1	0.794 µM	12.6 µM	7.49 µM	< 0.01 µM	3.91 µM	0.402 µM	–	> 100 µM	–	–	–	–	–	–	–	–	–	–	–
O=C1c2c(Br)sc(Br)c2[C@@H](O)[C@H]1O	34.4 µM	> 100 µM	24.7 µM	25.8 µM	32.4 µM	40.4 µM	35.1 µM	12.3 µM	6.25 µM	29.3 µM	–	–	–	–	–	–	–	–	–
Cc1ccc(-c2cn3c(nc4ccccc43)c(/C=C/c3ccco3)n2)cc1	> 100 µM	> 100 µM	> 100 µM	> 100 µM	> 100 µM	> 100 µM	–	> 100 µM	> 100 µM	> 100 µM	–	–	–	–	–	–	–	–	–
COc1ccc(CCn2cncn2)cc1	> 100 µM	–	> 100 µM	–	> 100 µM	> 100 µM	> 100 µM	> 100 µM	> 100 µM	> 100 µM	–	–	–	–	–	–	–	–	–
O=c1c2cc(O)ccc2n2nnc3ccc(NCCNCCO)c1c32	26.4 µM and 14.5 µM	> 87.4 µM and 16.7 µM	11.2 µM and 13.1 µM	–	28.9 µM and 11.7 µM	> 66.3 µM and 29.1 µM	> 45.5 µM and 35.2 µM	> 88.5 µM and 14.8 µM	> 86 µM and 16.3 µM	15.9 µM and 14.9 µM	5.16 µM and 1.55 µM	10.9 µM and 3.43 µM	25.1 µM and 6.77 µM	12.9 µM and 2.39 µM	14.8 µM and 3.75 µM	–	–	–	–
COc1ccccc1-c1c(C#N)c(N)[nH]c(=S)c1C#N	> 100 µM	> 100 µM	> 100 µM	> 100 µM	> 100 µM	> 100 µM	> 100 µM	> 100 µM	> 100 µM	> 100 µM	–	–	–	–	–	–	–	–	–
CN(C)c1ccc(-c2ccc(-c3ccc(C(=N)N)cn3)o2)cc1	–	–	–	2.5 µM	3 µM	1.74 µM	3.81 µM	2.41 µM	3.24 µM	2.9 µM	0.774 µM	–	–	1.58 µM	1.76 µM	1.24 µM	0.479 µM	2 µM	1.54 µM
